One assay addresses T1, KRas Q61H (Homo sapiens, UniProt P01116, Q61H).
T1 construct: Biotinylated KRas (corresponding to amino acids 1-169, produced at Accelegan Inc.); biotin (biotinylated); purchased Accelegan Inc
The assay is described as follows: KRas binding assay (TR-FRET displacement).

The target of a further assay is T2, KRas G13D (Homo sapiens, UniProt P01116, G13D).
T2 construct: Biotinylated KRas (corresponding to amino acids 1-169, produced at Accelegan Inc.); biotin (biotinylated); purchased Accelegan Inc
T2 sequence (P01116 1-169 isoform P01116-2 G13D): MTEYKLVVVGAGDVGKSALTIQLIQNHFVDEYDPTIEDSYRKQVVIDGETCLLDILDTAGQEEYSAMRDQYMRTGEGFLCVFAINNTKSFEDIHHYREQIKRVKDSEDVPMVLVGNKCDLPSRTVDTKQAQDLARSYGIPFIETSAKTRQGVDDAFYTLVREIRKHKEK
The assay is described as follows: KRas binding assay (TR-FRET displacement).

A further assay has as its target KRas G12D (Homo sapiens, UniProt P01116, G12D). The assay is described as follows: biochemical.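 Further: TR-FRET displacement binding assay on KRas, read after a one-hour incubation at room temperature, IC50 fitted from percent-of-control values.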
The target of another assay is KRas G12A (Homo sapiens, UniProt P01116, G12A). The assay is described as follows: biochemical.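 Further: binding to KRas measured by TR-FRET displacement after one hour at room temperature, IC50 from a four-parameter fit of percent-of-control values.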
Sequence of KRas G12A (P01116 1-169 isoform P01116-2 G12A): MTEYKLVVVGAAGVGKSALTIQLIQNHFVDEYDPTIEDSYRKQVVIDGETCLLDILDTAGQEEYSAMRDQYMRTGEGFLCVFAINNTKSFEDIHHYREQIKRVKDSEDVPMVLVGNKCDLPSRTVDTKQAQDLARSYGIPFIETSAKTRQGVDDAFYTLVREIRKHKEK
In the next assay the target is KRas G12R (Homo sapiens, UniProt P01116, G12R). The assay is described as follows: biochemical.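 Further: TR-FRET displacement assay of compound binding to KRas, read after one hour at room temperature, potency from a four-parameter fit of percent-of-control values.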
Sequence of KRas G12R (P01116 1-169 isoform P01116-2 G12R): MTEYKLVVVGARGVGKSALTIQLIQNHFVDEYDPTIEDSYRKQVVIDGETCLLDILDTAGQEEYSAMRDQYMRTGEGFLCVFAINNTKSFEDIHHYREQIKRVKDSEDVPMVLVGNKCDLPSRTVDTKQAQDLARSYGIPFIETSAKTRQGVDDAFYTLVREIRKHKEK
The target of another assay is KRas G12S (Homo sapiens, UniProt P01116, G12S). The assay is described as follows: biochemical.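 Further: TR-FRET displacement binding to KRas, read after one hour incubation at room temperature, IC50 from four-parameter fit of percent of control.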
Sequence of KRas G12S (P01116 1-169 isoform P01116-2 G12S): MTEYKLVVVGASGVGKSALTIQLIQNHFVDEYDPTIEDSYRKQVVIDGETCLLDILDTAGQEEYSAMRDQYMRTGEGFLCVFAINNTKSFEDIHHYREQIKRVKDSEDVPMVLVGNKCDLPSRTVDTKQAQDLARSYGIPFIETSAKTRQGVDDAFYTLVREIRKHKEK
Another assay addresses KRas WT (Homo sapiens, UniProt P01116). The assay is described as follows: biochemical.
The target in a further assay is KRas G12V (Homo sapiens, UniProt P01116, G12V). The assay is described as follows: biochemical.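 Further: KRas binding measured by TR-FRET displacement at room temperature, IC50 fitted from percent of control values.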
Sequence of KRas G12V (P01116 1-169 isoform P01116-2 G12V): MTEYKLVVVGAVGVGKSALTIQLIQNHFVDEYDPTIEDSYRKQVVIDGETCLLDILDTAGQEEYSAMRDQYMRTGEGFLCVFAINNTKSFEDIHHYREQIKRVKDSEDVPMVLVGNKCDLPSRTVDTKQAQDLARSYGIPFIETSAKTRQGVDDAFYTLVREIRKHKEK
The next assay has as its target KRas G12C (Homo sapiens, UniProt P01116, G12C). The assay is described as follows: biochemical.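 Further: binding to KRas assessed by TR-FRET displacement after one hour incubation at room temperature, potency fitted from percent-of-control values.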

Structures are written as SMILES. A value given as a limit tells only on which side of the number the result lay.

Sequence of KRas G12C (P01116 1-169 isoform P01116-2 G12C): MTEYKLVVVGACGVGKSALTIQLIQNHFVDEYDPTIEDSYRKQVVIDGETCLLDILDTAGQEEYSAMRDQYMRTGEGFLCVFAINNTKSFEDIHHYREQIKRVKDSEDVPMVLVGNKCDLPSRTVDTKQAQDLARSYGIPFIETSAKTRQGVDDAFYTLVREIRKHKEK
T1 sequence (P01116 1-169 isoform P01116-2 Q61H): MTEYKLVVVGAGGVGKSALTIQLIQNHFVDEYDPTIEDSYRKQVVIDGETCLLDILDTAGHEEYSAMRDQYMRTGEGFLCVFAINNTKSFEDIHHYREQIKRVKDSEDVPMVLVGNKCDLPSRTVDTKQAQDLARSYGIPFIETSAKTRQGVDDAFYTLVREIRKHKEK
Sequence of KRas WT (P01116 1-169 isoform P01116-2): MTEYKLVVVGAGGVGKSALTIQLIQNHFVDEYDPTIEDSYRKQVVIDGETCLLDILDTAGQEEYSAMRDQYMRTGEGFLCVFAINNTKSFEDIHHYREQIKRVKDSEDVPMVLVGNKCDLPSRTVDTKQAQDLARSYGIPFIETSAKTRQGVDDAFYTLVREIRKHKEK
Sequence of KRas G12D (P01116 1-169 isoform P01116-2 G12D): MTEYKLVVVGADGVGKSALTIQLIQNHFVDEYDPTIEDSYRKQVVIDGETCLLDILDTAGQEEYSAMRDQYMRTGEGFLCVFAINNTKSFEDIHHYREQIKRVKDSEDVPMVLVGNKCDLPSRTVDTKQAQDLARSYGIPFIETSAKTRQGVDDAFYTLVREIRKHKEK

Turning to `Fc1c(-c2cccc3cccc(F)c23)ncc2c(NCc3c[nH]c4ncccc34)nc(OCC34CCCN3CCC4)nc12` [Example 94, N-((1H-pyrrolo[2,3-b]pyridin-3-yl)methyl)-8-fluoro-7-(8-fluoronaphthalen-1-yl)-2-((tetrahydro-1H-pyrrolizin-7a(5H)-yl)methoxy)pyrido[4,3-d]pyrimidin-4-amine], the IC50 came to 1850 nM on KRas Q61H; 1250 nM at KRas G13D; 4.51 µM on KRas G12D; 0.24 µM against KRas G12A; 0.115 µM against KRas G12R; 0.368 µM against KRas G12S. The IC50 turned out to be 1.39 µM against KRas WT, 0.146 µM at KRas G12V and 0.183 µM against KRas G12C.

In the case of `Fc1c(-c2cccc3cccc(F)c23)ncc2c(N3CCCC4(CC(F)C4)C3)nc(OCC34CCCN3CCC4)nc12` (stereo not drawn) [Example 234, 8-fluoro-4-(2-fluoro-6-azaspiro[3.5]nonan-6-yl)-7-(8-fluoronaphthalen-1-yl)-2-((hexahydro-1H-pyrrolizin-7a-yl)methoxy)pyrido[4,3-d]pyrimidine], the half-maximal inhibitory concentration (IC50) amounted to 2590 nM on KRas Q61H; 1980 nM at KRas G13D; 2.02 µM against KRas G12D; 2.3 µM at KRas G12A; 1.85 µM at KRas G12R; 1.76 µM on KRas G12S. For the same compound, the IC50 at KRas WT is 2.64 µM; against KRas G12V, 1.6 µM; at KRas G12C, 1.62 µM.

With `OCC12CC(Nc3nc(OCC45CCCN4CCC5)nc4c(F)c(-c5cccc6cccc(F)c56)ncc34)(C1)C2` [Example 85, (3-((8-fluoro-7-(8-fluoronaphthalen-1-yl)-2-((hexahydro-1H-pyrrolizin-7a-yl)methoxy)pyrido[4,3-d]pyrimidin-4-yl)amino)bicyclo[1.1.1]pentan-1-yl)methanol], the IC50 at KRas Q61H came out at 10900 nM; on KRas G13D, 4660 nM; against KRas G12D, 44 µM; on KRas G12A, 2.85 µM; against KRas G12R it was 2.12 µM; at KRas G12S, 4.64 µM. Besides, the IC50 was 4.52 µM at KRas WT, 3.7 µM on KRas G12V and 2.15 µM on KRas G12C.

`Fc1c(-c2cccc3cccc(F)c23)ncc2c(Nc3ccc4cn[nH]c4c3)nc(OCC34CCCN3CCC4)nc12` [Example 218, 8-fluoro-7-(8-fluoronaphthalen-1-yl)-N-(1H-indazol-6-yl)-2-((tetrahydro-1H-pyrrolizin-7a(5H)-yl)methoxy)pyrido[4,3-d]pyrimidin-4-amine]: the IC50 was 84800 nM on KRas Q61H; at least 100000 nM on KRas G13D; 65.9 µM on KRas G12D; 14.8 µM on KRas G12A; 6.53 µM against KRas G12R; 23.2 µM against KRas G12S. The IC50 was 28.9 µM on KRas WT, 2.84 µM against KRas G12V and 6.88 µM against KRas G12C.

For the compound `Nc1cc2n(n1)CCN(c1nc(OCC34CCCN3CCC4)nc3c(F)c(-c4cccc5cccc(F)c45)ncc13)C2` [Example 126, 5-(8-fluoro-7-(8-fluoronaphthalen-1-yl)-2-((tetrahydro-1H-pyrrolizin-7a(5H)-yl)methoxy)pyrido[4,3-d]pyrimidin-4-yl)-4,5,6,7-tetrahydropyrazolo[1,5-a]pyrazin-2-amine], the IC50 on KRas Q61H came to 7500 nM; at KRas G13D, 7290 nM; at KRas G12D it was 67.3 µM; against KRas G12A it was 13.8 µM; on KRas G12R it was 18.4 µM; against KRas G12S it was 3.97 µM. Besides, the IC50 against KRas WT is 5.97 µM; against KRas G12V, at least 100 µM; at KRas G12C, 9.29 µM.

For `OC12CC(Nc3nc(OCC45CCCN4CCC5)nc4c(F)c(-c5cccc6cccc(F)c56)ncc34)(C1)C2` [Example 90, 3-((8-fluoro-7-(8-fluoronaphthalen-1-yl)-2-((hexahydro-1H-pyrrolizin-7a-yl)methoxy)pyrido[4,3-d]pyrimidin-4-yl)amino)bicyclo[1.1.1]pentan-1-ol], the IC50 was 19600 nM at KRas Q61H; 8210 nM on KRas G13D; 40.2 µM against KRas G12D; 5.14 µM at KRas G12A; 4.19 µM against KRas G12R; 6.48 µM on KRas G12S. Also, the figures for the IC50 at KRas WT, on KRas G12V and against KRas G12C were 7.24 µM, 3.47 µM and 4.18 µM, respectively.

Consider `NC(=O)N1CC(Nc2nc(OCC34CCCN3CCC4)nc3c(F)c(-c4cccc5cccc(Cl)c45)ncc23)C1` [Example 107, 3-((7-(8-chloronaphthalen-1-yl)-8-fluoro-2-((tetrahydro-1H-pyrrolizin-7a(5H)-yl)methoxy)pyrido[4,3-d]pyrimidin-4-yl)amino)azetidine-1-carboxamide], for which the IC50 at KRas Q61H stood at 8780 nM; on KRas G13D it was 8790 nM; on KRas G12D it was 10.8 µM; against KRas G12A it was 6.52 µM; against KRas G12R, 4.62 µM; at KRas G12S, 6.85 µM. In addition, the IC50 at KRas WT amounted to 8.53 µM; on KRas G12V, 3.41 µM; at KRas G12C, 3.52 µM.

As for `O=c1ccc(CNc2nc(OCC34CCCN3CCC4)nc3c(F)c(-c4cccc5cccc(F)c45)ncc23)c[nH]1` [Example 96, 5-(((8-fluoro-7-(8-fluoronaphthalen-1-yl)-2-((hexahydro-1H-pyrrolizin-7a-yl)methoxy)pyrido[4,3-d]pyrimidin-4-yl)amino)methyl)pyridin-2 (1H)-one], the IC50 at KRas Q61H is 22100 nM; on KRas G13D it was 10700 nM; at KRas G12D it was 62.9 µM; on KRas G12A, 2.5 µM; against KRas G12R it was 3.19 µM; at KRas G12S, 3.23 µM. In addition, the results for the IC50 on KRas WT, at KRas G12V and at KRas G12C were 5.71 µM, 1.94 µM and 1.95 µM, respectively.

Take `N#CC1CCCN(c2nc(OCC34CCCN3CCC4)nc3c(F)c(-c4cccc5cccc(F)c45)ncc23)CC1` (stereo not drawn) [Example 87, 1-(8-fluoro-7-(8-fluoronaphthalen-1-yl)-2-((hexahydro-1H-pyrrolizin-7a-yl)methoxy)pyrido[4,3-d]pyrimidin-4-yl)azepane-4-carbonitrile]: the IC50 turned out to be 9500 nM at KRas Q61H; 5260 nM at KRas G13D; 3.36 µM against KRas G12D; 7.12 µM at KRas G12A; 11.9 µM on KRas G12R; 10.8 µM against KRas G12S. Further, the IC50 on KRas WT came to 6.09 µM; at KRas G12V, 3.66 µM; on KRas G12C, 5.94 µM.

With `Fc1c(-c2cccc3cccc(F)c23)ncc2c(NCCCn3cnnn3)nc(OCC34CCCN3CCC4)nc12` [Example 119, N-(3-(1H-tetrazol-1-yl)propyl)-8-fluoro-7-(8-fluoronaphthalen-1-yl)-2-((tetrahydro-1H-pyrrolizin-7a(5H)-yl)methoxy)pyrido[4,3-d]pyrimidin-4-amine], the IC50 on KRas Q61H is 27600 nM; at KRas G13D, 17200 nM; against KRas G12D it was 31.9 µM; against KRas G12A it was 14.4 µM; against KRas G12R, 15.6 µM; against KRas G12S it was 14.6 µM. The results for the IC50 against KRas WT, against KRas G12V and on KRas G12C were 15.7 µM, 18 µM and 11.6 µM, respectively.
